Laboratory results as given in patent US4288609A, “Quaternary ammonium derivatives of adamantane with antimicrobic activity” (priority 1976, dated 1981).
Where “and” joins values, the source holds several entries; their conditions need not be identical. Equal entries are not always repeated. Where two headings read alike, the source gives them in different places.

Tests used:
[1] = test system: all the micro-organisms tested; test: Speed of sterilising action, all micro-organisms; assay type: cell-based; details: even with a very low concentration
Method: (§1) The strains, inoculants, culture broths and experimental methods are as already seen for calculating the M.I.C. in vitro. The antimicrobic substances were tested at concentrations of 0.1, 0.25, 0.5 and 1 g/l, the contact times taken into consideration are 0, 1, 2.5, 5, 7.5, 10, 15, 30 and 60 minutes.
(§2) The samples which at the 7th day of incubation still had no growth of micro-organisms which could be observed macroscopically and/or microscopically were considered sterile.
(§3) The results are recorded in Table 3 in terms of sterilization time expressed in minutes.

Esch. Coli. SKF 12140 = test: M.I.C. in vitro, gram- Esch. Coli (Table 1); assay type: cell-based, Escherichia Coli; details: Escherichia coli, read-out: M.I.C.
Method: (§4) The method for evaluating the activity in vitro against bacteria, fungi and protozoa consists in introducing calculated quantities of the substance, the activity of which it is desired to test, into culture media already inoculated with a predetermined number of test germs.
(§5) After 24 or 48 hours of incubation at 30° or 37° C., according to the micro-organism being tested, it is possible to evaluate the growth of the same in the culture broth; in this manner the minimum concentration (M.I.C.) which inhibits the growth of the micro-organisms in vitro is determined.
(§6) In table 1 there are recorded the M.I.C. values in γ/ml of the products subject of the present invention, against certain gram+ and gram- bacterial strains, some of which are pathogenic towards human beings.

[2] = test system: Streptococ. Henclyt. 0203; test: M.I.C. in vitro, gram+ Streptococ. Henclyt. (Table 1); assay type: cell-based
Method: as §4, §5, §6

Staph.Aureus Tour = test: M.I.C. in vitro, gram+ Staph. Aureus (Table 1); assay type: cell-based, Staphylococcus Aureus
Method: as §4, §5, §6

Trich. Foetus ISM 66/23 = test: MIC protozoa, Trichomonas foetus (Table 2); assay type: cell-based; details: +10% serum (head); Kupferberg Trichomonas broth with 5% of horse serum
Method: as §4, §5
Inoculation with Trichomonas vaginalis and Trichomonas foetus, obtained from cultures transplanted every other day to make them lively, was effected in a ratio of 3.5% of the volume of medium used.
(§7) For the fungi Sabourand broth was used as a culture medium, whilst for the protozoa Kupferberg Trichomonas broth with 5% of horse serum was used.

[3] = test system: Candida Pseudotrop. ATCC 2512; test: MIC yeasts, Candida pseudotropicalis (Table 2); assay type: cell-based; details: Sabourand broth
Method: as §4, §5
Inoculation with Candida albicans or Candida pseudotropicalis was made by diluting cultures grown for 24 h at 30° C. (cellular density inoculated 10^3 /ml).
as §7

Pseudomonas Aeruginosa = test: Antibacterial activity in vivo with topical treatment (Table 5); parameters: species or system female CF1 albino mice; details: for animals alive on the 15th day / animals dead on the 15th day: 10 animals; for % survivors: topical, 15th day
Method: After their backs have been shaved, female CF1 albino mice weighing 18-22 g are scorched (under ether anaesthetic) for 15 seconds with a pad of brass previously immersed in boiling water (7-8% of the body surface). After 90 minutes there is applied to the scorched area 0.1 ml of a suspension of Pseudomonas Aeruginosa bacteria having 15% transmittance at 650 nm. The bacterial strain in question produces a high incidence of mortality, induced by septicemic diffusion from the point of infection. After 90 minutes, with the aid of a glass rod suitably flattened at one end, the preparation containing a known concentration of the compound under examination is applied locally. The treatment is continued for a total of six days (once per day). On the fifteenth day the percentage of survivors to the tested doses in recorded.
The carrier used for applying the compounds under examination is an aqueous 0.75% solution of carboxymethyl-cellulose. The concentrations of the compounds tested are 2, 1, 0.5 and 0.25% by weight.

[4] = test system: Trichophyton Mentagrophytes; test: Topical activity upon dermatophytis from Trichophyton in cavies (Table 6); assay type: in vivo, Albino cavies; details: for evaluation of seriousness of infection (A.D.I.): average index
Method: Albino cavies of 250-300 g are infected, after depilation and scarification of a circular area of dorsal skin upon which there are supplied 0.1 ml of a suspension of microconidia of Trichophyton Mentagrophytes from the Pasteur Institute collection, obtained from a culture of 15 days upon Saboureaud agar. 24 Hours after infection topical treatment is started and is continued for two weeks (once per day).
The compounds to be tested are dissolved or suspended at the desired concentration, in a water-alcohol mixture (75/25 v/v) containing 0.75% by weight of carboxymethyl-cellulose (CMC). […] Each single application is carried out using 0.25 ml of the suspension or solution obtained as described above.
Fourteen days after infection the lesions are assessed. Assessment is carried out by attributing index numbers depending upon the seriousness of the lesions formed, as follows:
The substances under examination were tested at concentrations of 5 and 2.5% by weight.

Pseudom.Aer. ATCC 1014 = test: M.I.C. in vitro, gram- Pseudom. Aer. (Table 1); assay type: cell-based, Pseudomonas Aeruginosa
Method: as §4, §5, §6

[5] = test system: Candida Albicans SKF 2270; test: Speed of sterilising action, Candida Albicans (Table 3); assay type: cell-based
Method: as §1, §2, §3

[6] = test system: Nicrosporum Canis ATCC 11621; test: MIC mildews, Microsporum canis (Table 2); assay type: cell-based; details: Sabourand broth
Method: as §4, §5
(§8) Inoculation with Trichophyton mentagrophytes and Microsporum canis was effected in a ratio of 1% of the volume of medium used.
as §7

Klens. Pneum. ISM = test: M.I.C. in vitro, gram- Klens. Pneum. (Table 1); assay type: cell-based
Method: as §4, §5, §6

[7] = test system: Trych. Mentagr. 1st.Pastuer; test: MIC mildews, Trichophyton mentagrophytes (Table 2); assay type: cell-based; details: Sabourand broth
Method: as §4, §5, §8, §7

[8] = test system: Escherichia Coli SKF 12140; test: Speed of sterilising action, Escherichia Coli (Table 3); assay type: cell-based
Method: as §1, §2, §3

[9] = Acute oral toxicity in mice (Table 4); details: mouse, in vivo, po, LD50, oral, mice, 14 days
Method: The substances were administered orally to groups of 10 female mice CF1 of average weight of about 20 grams, in aqueous solution and in such way that the total volume administered would be in each case 1 ml/100 g of weight.

What does the source list for `CCCCCCCCCC[N+](C)(C)CCOC(=O)C12CC3CC(CC(C3)C1)C2` (single isomer, unassigned) [Example 1, n-Decyl-dimethyl-(1-adamantane-carboxy)-ethyl-ammonium bromide]?
sterilising action (in words) [1]: swift sterilising action on all the micro-organisms tested; MIC (Esch. Coli. SKF 12140; +10% serum): 50 µg/mL; MIC (Esch. Coli. SKF 12140; without serum): 5 µg/mL; M.I.C. ([2]; +10% serum): 0.1 µg/mL; MIC ([2]; without serum, read-out: M.I.C.): < 0.1 µg/mL; M.I.C. (Staph.Aureus Tour; +10% serum): 2 µg/mL; MIC (Staph.Aureus Tour; Staphylococcus aureus, without serum, read-out: M.I.C.): < 0.1 µg/mL; MIC (Trich. Foetus ISM 66/23): 2 µg/mL; MIC ([3]; +10% serum): 20 µg/mL; MIC ([3]; without serum): < 0.1 µg/mL; animals alive on the 15th day (Pseudomonas Aeruginosa; 0.25% by weight): 5; animals dead on the 15th day (Pseudomonas Aeruginosa; 0.25% by weight): 5; % survivors (Pseudomonas Aeruginosa; 0.25% by weight): 50%; animals alive on the 15th day (Pseudomonas Aeruginosa; 0.5% by weight): 6; animals dead on the 15th day (Pseudomonas Aeruginosa; 0.5% by weight): 4; animals alive on the 15th day (Pseudomonas Aeruginosa; 1% by weight): 8; animals dead on the 15th day (Pseudomonas Aeruginosa; 1% by weight): 2; % survivors (Pseudomonas Aeruginosa; 1% by weight): 80%; animals alive on the 15th day (Pseudomonas Aeruginosa; 2% by weight): 8; animals dead on the 15th day (Pseudomonas Aeruginosa; 2% by weight): 2; % survivors (Pseudomonas Aeruginosa; 2% by weight): 80%; efficacy in vivo (in words) (Pseudomonas Aeruginosa; other concentrations considered): secure efficacy; A.D.I. (% of control group) ([4]; 2.5% by weight): 31.09%; healing % (100-A.D.I. %) ([4]; 2.5% by weight): 68.91%; evaluation of seriousness of infection (A.D.I.) ([4]; 2.5% by weight): 0.83; A.D.I. (% of control group) ([4]; 5% by weight): 12.36%; healing % (100-A.D.I. %) ([4]; 5% by weight): 87.64% and ~90%; evaluation of seriousness of infection (A.D.I.) ([4]; 5% by weight): 0.33; in vivo activity against Trichophyton Mentagrophytes (in words) ([4]; in vivo): excellent "in vivo" activity against Trichophyton Mentagrophytes; MIC (Pseudom.Aer. ATCC 1014; Pseudomonas aeruginosa, ATCC1014, +10% serum, read-out: M.I.C.): 50 µg/mL; M.I.C. (Pseudom.Aer. ATCC 1014; without serum): 20 µg/mL; sterilization time ([5]; 0.1 g/l): 30 min; sterilization time ([5]; 0.25 g/l): 2.5 min; sterilization time ([5]; 0.5 g/l): 1 min; sterilization time ([5]; 1 g/l): 1 min; MIC ([6]; Microsporum canis, ATCC11621, +10% serum, read-out: MIC): 10 µg/mL; MIC ([6]; without serum): 0.1 µg/mL; MIC (Klens. Pneum. ISM; +10% serum, read-out: M.I.C.): 50 µg/mL; M.I.C. (Klens. Pneum. ISM; without serum): 5 µg/mL; MIC ([7]; +10% serum): 5 µg/mL; MIC ([7]; without serum): 0.1 µg/mL; sterilization time ([8]; 0.1 g/l): 60 min; sterilization time ([8]; 0.25 g/l): 60 min; sterilization time ([8]; 0.5 g/l): 15 min; sterilization time ([8]; 1 g/l): 5 min; LD50 at 336 h [9]: 910 mg/kg
